Consider eight compounds from ChEMBL document CHEMBL1201862, “PubChem BioAssay data set” (2004).

For test [1], the system named is HEK293. The experiment in a line: PMA/Ionomycin induced NF-kB luciferase assay in 293- NF-kB-Luc stable cells. [Related pubchem assays: 1299, 1270, 1295, 1375, 1287, 1281, 1293, 1291, 1289, 1280, 465, 1364, 1282, 1372, 1365, 1370, 1367, 1366, 1269, 1373, 1292, 1290, 1302, 1371, 1283, 1271, 1294, 1374, 1368, 1369 ]. The following applies: Homo sapiens. It counts as functional, cell-based.

Test [2] concerns HEK293. Briefly: Cytotoxicity assay in HEK293 cells. [Related pubchem assays (depositor defined):AID1266, AID1269, AID1270, AID1271, AID1280, AID1281, AID1282, AID1283, AID1287, AID1289, AID1290, AID1291, AID1292, AID1293, AID1294, AID1295, AID1299, AID1302, AID1364, AID1365, AID1366, AID1367, AID1369, AID1370, AID1371, AID1372, AID1373, AID1374, AID1375, AID1384 …. In kind it is functional, cell-based. The following applies: Homo sapiens.

The target of test [3] is T1, Luciferin 4-monooxygenase (Photinus pyralis, UniProt P08659). The experiment in a line: In vitro luciferase assay using purified luciferase. [Related pubchem assays: 1299, 1270, 1295, 1375, 1287, 1281, 1293, 1291, 1289, 1280, 465, 1364, 1282, 1372, 1365, 1370, 1367, 1366, 1266, 1373, 1292, 1290, 1302, 1371, 1283, 1271, 1294, 1374, 1368, 1369 ].
In test [4] the test system is HEK293. The experiment in a line: PMA/Ionomycin-induced IL-8 production in HEK293- NF-kB-Luc stable cells. [Related pubchem assays: 1299, 1295, 1375, 1287, 1281, 1293, 1291, 1289, 1280, 465, 1364, 1282, 1372, 1365, 1367, 1366, 1266, 1269, 1373, 1292, 1290, 1302, 1371, 1283, 1271, 1294, 1374, 1368, 1369 ]. It counts as functional, cell-based. The conditions noted are these: Homo sapiens.

The subject of test [5] is HEK293. Briefly: TNF Induced NF-kB Luciferase in 293-NF-kB-Luc Stable Cells. [Related pubchem assays: 1266, 1299, 1269, 1373, 1292, 1290, 1302, 1371, 1283, 1270, 1295, 1271, 1375, 1294, 1374, 1281, 1293, 1291, 1289, 1280, 465, 1368, 1364, 1282, 1372, 1365, 1369, 1370, 1367, 1366 ]. It counts as functional, cell-based. The conditions noted are these: Homo sapiens.
The target of test [6] is T2, Kappa-type opioid receptor (Homo sapiens, UniProt P41145). It counts as functional.
For test [7], the target named is Cytochrome P450 2C9 (Homo sapiens, UniProt P11712).
The target in test [8] is T3, Delta-type opioid receptor (Homo sapiens, UniProt P41143). The experiment in a line: HTS Image-Based Screen for Antagonists of the DOR Receptor. [Related pubchem assays (depositor defined):AID1777, AID1785, AID1786, AID2133]. In kind it is functional.
The target in test [9] is T2, Kappa-type opioid receptor. In kind it is functional. The source holds these as a separate data set.
Test [10] deals with Cytochrome P450 2C19 (Homo sapiens, UniProt P33261). The experiment in a line: Cytochrome panel assay with activity outcomes. Panel member name: p450-cyp2c19 Compounds with AC50 equal or less than 10 uM are considered active. It counts as functional. The following applies: read-out: AC50.
Test [11] deals with T4, Mu-type opioid receptor (Homo sapiens, UniProt P35372). Briefly: HTS Image-Based Screen for Agonists of the MOR Receptor. [Related pubchem assays (depositor defined):AID1777, AID1785, AID1786, AID2133]. It counts as functional.
Test [12] deals with T3, Delta-type opioid receptor. Briefly: HTS Image-Based Screen for Agonists of the DOR Receptor. [Related pubchem assays (depositor defined):AID1777, AID1786, AID2133]. It counts as functional.
The target in test [13] is T4, Mu-type opioid receptor. Briefly: mu opioid receptor blockers – image-based, SAR follow-up (AID 2420).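 Also: compounds added before stimulation of receptor with agonist DAMGO.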 In kind it is functional.
For test [14], the target named is Beta-galactosidase (Escherichia coli, UniProt Q8VNN2). It counts as functional.
Test [15] addresses T2, Kappa-type opioid receptor. In kind it is functional. The source holds these as a separate data set.
For test [16], the target named is T2, Kappa-type opioid receptor. Briefly: SAR analysis of small molecule antagonists of the kappa opioid receptor via a luminescent beta-arrestin assay - Set 3. [Related pubchem assays (depositor defined):AID1777, AID1778, AID1785, AID1786, AID1966, AID2133, AID2136, AID2285, AID2495]. In kind it is functional.
For test [17], the target named is T4, Mu-type opioid receptor. The experiment in a line: mu opioid receptor activators, image-based, SAR follow-up (AID 2352). In kind it is functional.
The target in test [18] is T2, Kappa-type opioid receptor. Briefly: kappa opioid receptor activation potency – imaging, image-based, SAR follow-up (AID 2359). In kind it is functional.
Test [19] concerns the target T4, Mu-type opioid receptor. The experiment in a line: SAR Analysis of Antagonists of the MOR Receptor using an Image-Based Assay - Set 3. [Related pubchem assays (depositor defined):AID1777, AID1785, AID1786, AID1966, AID2133, AID2136, AID2284, AID2285, AID2420]. It counts as functional.
Test [20] has as its target T3, Delta-type opioid receptor. The experiment in a line: SAR Analysis of Antagonists of the DOR Receptor using an Image-Based Assay - Set 3. [Related pubchem assays (depositor defined):AID1777, AID1785]. In kind it is functional.
In test [21] the target is T3, Delta-type opioid receptor. The experiment in a line: DOR agonists, SAR follow-up, image-based (AID 2370). In kind it is functional.
In test [22] the target is T2, Kappa-type opioid receptor. Briefly: SAR analysis of Antagonists of the Kappa Opioid Receptor (KOR) using an Image-Based Assay - Set 3. [Related pubchem assays (depositor defined):AID1777, AID1785]. In kind it is functional.
The target in test [23] is T2, Kappa-type opioid receptor. The experiment in a line: SAR analysis of Antagonists of the Kappa Opioid Receptor (KOR) using an Image-Based Assay - Set 4. [Related pubchem assays (depositor defined):AID1777, AID1785]. It counts as functional.
For test [24], the target named is T3, Delta-type opioid receptor. The experiment in a line: delta opioid receptor blockers – image-based, SAR follow-up (AID 2357). It counts as functional.
Test [25] concerns the target T2, Kappa-type opioid receptor. The experiment in a line: kappa opioid receptor blockers, image-based, SAR follow-up (AID 2348). In kind it is functional.
Test [26] addresses T2, Kappa-type opioid receptor. In kind it is functional. The source holds these as a separate data set.
Test [27] has as its target T2, Kappa-type opioid receptor. Briefly: kappa opioid receptor blockers, cell-based, luminescence, beta-arrestin, SAR follow-up (AID 2285). In kind it is functional.
For test [28], the target named is G-protein coupled receptor 55 (Homo sapiens, UniProt Q9Y2T6). The experiment in a line: selective activators of receptor GPR55 – imaging, U2OS cells, beta-arrestin-GFP redistribution, primary screen (AID 1961). In kind it is functional.
A short description of test [29]: Luminescence Cell-Based Dose Confirmation HTS to Identify Inhibitors of Platelet Dense Granule Release. [Related pubchem assays: 1663 (Primary HTS), 1678 (Summary of Project)]. In kind it is functional.
Test [30] deals with Eukaryotic translation initiation factor 4H (Homo sapiens, UniProt Q15056). Briefly: eIF4H binding inhibition – biochemical, uHTS, fluorescence polarization, translation initiation inhibitor project, primary screen (AID 2012). For orientation: Fluorescence polarisation rises when a labelled molecule tumbles more slowly, as on binding a larger partner.
Test [31] addresses Polyadenylate-binding protein 1 (Homo sapiens, UniProt P11940). The experiment in a line: blockers of PABP interaction with poly(A) – biochemical, fluorescence polarization, […] (AID 2014).
The target in test [32] is T1, Luciferin 4-monooxygenase. Briefly: inhibition of purified Photinus pyralis luciferase – biochemical, luminescence, dose response (AID 1891).
Test [33] deals with Metabotropic glutamate receptor 4 (Rattus norvegicus, UniProt P31423). Briefly: Modulation of the Metabotropic Glutamate Receptor mGluR4: Rat PAM Potency. [Related pubchem assays (depositor defined):AID2437, AID2807]. It counts as functional.
Test [34] deals with T5, Scavenger receptor class B member 1 (Mus musculus, UniProt Q61009).
T5 sequence (Q61009 whole entry): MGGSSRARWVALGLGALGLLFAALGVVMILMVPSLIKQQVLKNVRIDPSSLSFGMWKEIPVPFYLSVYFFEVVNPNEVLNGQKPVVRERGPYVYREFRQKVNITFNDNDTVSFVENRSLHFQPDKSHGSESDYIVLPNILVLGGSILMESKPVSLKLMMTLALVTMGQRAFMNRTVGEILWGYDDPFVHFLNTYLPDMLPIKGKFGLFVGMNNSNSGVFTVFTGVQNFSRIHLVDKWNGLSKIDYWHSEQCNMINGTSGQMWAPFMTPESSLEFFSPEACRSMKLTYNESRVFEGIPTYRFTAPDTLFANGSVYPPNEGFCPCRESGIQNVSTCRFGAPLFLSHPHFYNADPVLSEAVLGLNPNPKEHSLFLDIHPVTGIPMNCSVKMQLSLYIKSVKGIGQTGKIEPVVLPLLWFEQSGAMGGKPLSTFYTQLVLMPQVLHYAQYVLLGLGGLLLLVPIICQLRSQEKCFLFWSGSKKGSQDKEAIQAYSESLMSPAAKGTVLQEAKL
Briefly: mouse SR-BI DiI-HDL uptake blockers – ldlA[mSR-BI] cells, fluorescence, cherry pick, dose response (AID 493194).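 Also: cellular uptake of fluorescent DiI-labeled HDL measured as cell fluorescence.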 It counts as functional, cell-based.

The target in test [35] is T6, Voltage-gated N-type calcium channel alpha-1B subunit/Amyloid beta A4 precursor protein-binding family A member 1 (Homo sapiens, UniProt Q00975+Q02410). Briefly: disruptors of Mint-PDZ/N-type channel peptide interaction – biochemical, HTRF, SAR follow-up (AID 2489). In kind it is functional.
The target of test [36] is T6, Voltage-gated N-type calcium channel alpha-1B subunit/Amyloid beta A4 precursor protein-binding family A member 1. The experiment in a line: disruptors of Mint-PDZ/N-type channel peptide interaction – biochemical, HTRF, set 2, SAR follow-up (AID 434980). It counts as functional. On the technique in general: In TR-FRET formats the signal depends on donor and acceptor labels being close together.

Several values for one entry are separate records, joined by “and”; a condition that tells them apart may be missing. Equal values may be shown once. Activity calls are given as the source filed them. Some results are limits rather than exact numbers.

T2 sequence (P41145 whole entry): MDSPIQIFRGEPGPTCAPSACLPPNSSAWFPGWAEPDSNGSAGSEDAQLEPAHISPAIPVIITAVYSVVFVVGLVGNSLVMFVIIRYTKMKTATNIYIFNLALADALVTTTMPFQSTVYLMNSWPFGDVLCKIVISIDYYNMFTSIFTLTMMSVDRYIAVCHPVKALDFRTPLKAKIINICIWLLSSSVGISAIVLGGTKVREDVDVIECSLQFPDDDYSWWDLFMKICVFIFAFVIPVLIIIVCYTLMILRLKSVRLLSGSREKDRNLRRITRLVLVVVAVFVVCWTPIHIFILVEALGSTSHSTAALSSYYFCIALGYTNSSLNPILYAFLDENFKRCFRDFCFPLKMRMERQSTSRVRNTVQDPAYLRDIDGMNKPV
T3 sequence (P41143 whole entry): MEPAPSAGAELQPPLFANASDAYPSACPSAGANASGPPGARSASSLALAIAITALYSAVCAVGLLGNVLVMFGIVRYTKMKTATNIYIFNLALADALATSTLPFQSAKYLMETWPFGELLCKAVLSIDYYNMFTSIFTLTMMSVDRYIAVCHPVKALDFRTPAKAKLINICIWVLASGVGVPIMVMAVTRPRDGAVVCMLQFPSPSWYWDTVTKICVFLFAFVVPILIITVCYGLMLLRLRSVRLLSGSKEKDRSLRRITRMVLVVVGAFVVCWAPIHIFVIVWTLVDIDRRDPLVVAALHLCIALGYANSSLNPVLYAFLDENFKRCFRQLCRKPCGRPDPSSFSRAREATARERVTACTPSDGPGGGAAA
T4 sequence (P35372 whole entry): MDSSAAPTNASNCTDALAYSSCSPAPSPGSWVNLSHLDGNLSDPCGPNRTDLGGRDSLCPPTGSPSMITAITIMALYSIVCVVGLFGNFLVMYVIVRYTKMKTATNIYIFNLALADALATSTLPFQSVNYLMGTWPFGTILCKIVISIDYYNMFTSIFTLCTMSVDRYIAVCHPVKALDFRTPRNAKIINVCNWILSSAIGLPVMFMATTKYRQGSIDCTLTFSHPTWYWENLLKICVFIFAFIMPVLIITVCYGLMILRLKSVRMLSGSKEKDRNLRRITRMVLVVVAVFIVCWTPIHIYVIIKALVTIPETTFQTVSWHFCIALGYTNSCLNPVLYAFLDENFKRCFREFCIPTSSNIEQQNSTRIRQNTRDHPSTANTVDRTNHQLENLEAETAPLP
T1 sequence (P08659 whole entry): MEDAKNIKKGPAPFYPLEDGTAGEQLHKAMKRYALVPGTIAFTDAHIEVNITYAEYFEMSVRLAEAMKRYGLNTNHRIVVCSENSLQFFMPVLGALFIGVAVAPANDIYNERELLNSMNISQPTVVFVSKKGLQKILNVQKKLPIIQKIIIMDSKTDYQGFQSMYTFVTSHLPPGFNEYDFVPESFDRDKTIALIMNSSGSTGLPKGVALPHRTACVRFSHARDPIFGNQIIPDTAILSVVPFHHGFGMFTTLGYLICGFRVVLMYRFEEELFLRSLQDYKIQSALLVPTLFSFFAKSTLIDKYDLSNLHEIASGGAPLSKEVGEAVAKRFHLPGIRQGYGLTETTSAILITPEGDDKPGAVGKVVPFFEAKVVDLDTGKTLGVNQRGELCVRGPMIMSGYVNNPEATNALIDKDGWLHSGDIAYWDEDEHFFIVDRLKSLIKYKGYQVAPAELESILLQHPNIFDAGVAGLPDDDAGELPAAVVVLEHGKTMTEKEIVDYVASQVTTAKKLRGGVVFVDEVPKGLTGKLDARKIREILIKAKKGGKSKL
T6 sequence (Q00975 whole entry): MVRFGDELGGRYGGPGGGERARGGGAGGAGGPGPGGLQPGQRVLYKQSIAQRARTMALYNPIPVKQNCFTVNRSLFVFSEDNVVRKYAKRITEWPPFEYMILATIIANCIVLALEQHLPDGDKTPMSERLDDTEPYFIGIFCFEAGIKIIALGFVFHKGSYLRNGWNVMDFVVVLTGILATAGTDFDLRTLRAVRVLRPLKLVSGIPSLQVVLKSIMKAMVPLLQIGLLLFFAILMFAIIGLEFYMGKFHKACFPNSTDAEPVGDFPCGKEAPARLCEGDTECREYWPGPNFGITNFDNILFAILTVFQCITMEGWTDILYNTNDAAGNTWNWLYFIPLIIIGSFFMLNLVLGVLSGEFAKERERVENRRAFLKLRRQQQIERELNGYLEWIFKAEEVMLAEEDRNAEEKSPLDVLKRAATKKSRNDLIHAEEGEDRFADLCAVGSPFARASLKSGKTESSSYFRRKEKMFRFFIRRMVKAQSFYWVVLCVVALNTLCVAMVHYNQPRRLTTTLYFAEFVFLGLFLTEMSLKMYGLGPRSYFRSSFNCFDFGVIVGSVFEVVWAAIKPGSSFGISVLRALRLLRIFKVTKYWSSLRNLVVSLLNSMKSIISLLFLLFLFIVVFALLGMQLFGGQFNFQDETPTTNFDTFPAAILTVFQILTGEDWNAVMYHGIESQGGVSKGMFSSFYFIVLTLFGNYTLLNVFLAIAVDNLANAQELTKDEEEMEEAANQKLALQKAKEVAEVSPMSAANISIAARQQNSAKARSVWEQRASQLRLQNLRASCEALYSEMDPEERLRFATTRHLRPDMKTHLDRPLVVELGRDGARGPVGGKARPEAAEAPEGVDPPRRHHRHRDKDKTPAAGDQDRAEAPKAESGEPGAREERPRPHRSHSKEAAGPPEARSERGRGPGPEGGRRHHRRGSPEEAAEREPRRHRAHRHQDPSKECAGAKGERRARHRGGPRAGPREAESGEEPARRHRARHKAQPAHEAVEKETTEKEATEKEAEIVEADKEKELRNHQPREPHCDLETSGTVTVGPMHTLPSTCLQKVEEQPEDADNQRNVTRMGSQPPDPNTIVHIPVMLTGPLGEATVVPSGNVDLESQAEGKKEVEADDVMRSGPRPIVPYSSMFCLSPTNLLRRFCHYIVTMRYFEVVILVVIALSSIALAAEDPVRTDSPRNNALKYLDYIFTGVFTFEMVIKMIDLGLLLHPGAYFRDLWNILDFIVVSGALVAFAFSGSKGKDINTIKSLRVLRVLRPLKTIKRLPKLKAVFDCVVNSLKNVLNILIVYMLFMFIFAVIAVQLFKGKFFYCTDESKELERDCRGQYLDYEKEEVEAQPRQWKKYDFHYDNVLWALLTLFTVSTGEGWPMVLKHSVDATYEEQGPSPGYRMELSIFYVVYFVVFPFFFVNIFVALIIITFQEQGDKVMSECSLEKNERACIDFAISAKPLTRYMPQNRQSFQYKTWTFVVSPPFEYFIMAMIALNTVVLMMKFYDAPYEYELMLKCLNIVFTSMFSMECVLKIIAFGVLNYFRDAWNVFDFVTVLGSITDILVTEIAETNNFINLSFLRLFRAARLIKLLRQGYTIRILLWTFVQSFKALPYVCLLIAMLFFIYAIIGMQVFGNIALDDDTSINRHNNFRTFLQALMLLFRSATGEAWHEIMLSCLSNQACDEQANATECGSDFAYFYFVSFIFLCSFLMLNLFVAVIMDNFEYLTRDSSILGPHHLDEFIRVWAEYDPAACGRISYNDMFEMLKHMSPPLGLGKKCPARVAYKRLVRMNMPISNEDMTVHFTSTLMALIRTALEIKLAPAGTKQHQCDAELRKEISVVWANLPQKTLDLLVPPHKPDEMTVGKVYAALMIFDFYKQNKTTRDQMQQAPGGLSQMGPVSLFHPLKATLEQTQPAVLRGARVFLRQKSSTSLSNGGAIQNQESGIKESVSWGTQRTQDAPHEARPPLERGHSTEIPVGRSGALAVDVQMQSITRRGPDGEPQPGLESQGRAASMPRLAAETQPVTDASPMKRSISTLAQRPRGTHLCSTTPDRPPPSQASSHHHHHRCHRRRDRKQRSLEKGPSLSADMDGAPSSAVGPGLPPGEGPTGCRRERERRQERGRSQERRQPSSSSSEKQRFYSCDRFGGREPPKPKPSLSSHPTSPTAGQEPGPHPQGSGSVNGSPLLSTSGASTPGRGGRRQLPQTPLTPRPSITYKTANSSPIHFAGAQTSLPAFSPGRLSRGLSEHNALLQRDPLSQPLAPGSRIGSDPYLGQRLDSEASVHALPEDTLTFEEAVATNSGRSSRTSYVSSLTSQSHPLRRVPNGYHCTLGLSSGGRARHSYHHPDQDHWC
T6 sequence (Q02410 whole entry): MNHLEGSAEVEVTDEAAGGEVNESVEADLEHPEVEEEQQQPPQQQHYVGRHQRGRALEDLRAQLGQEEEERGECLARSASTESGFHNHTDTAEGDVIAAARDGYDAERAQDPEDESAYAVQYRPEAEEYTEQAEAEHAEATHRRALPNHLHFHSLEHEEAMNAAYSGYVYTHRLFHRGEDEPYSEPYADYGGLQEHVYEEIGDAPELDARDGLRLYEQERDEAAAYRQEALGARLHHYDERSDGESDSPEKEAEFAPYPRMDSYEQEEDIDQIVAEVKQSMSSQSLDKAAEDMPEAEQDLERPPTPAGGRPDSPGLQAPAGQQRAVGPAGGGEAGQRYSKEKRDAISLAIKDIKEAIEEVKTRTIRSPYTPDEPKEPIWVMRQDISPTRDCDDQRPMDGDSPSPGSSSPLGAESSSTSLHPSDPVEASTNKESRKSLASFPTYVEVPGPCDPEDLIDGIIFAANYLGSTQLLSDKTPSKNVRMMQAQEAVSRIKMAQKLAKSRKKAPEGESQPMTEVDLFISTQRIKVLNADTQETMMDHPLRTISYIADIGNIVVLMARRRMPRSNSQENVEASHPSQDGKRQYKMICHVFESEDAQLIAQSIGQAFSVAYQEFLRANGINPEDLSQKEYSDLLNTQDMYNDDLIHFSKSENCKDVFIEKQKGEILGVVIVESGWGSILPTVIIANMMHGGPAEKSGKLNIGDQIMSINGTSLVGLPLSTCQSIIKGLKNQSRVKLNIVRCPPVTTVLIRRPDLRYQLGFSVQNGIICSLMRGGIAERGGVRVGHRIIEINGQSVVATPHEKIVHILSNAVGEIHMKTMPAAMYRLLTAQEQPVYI

As usually defined, the EC50 is the concentration giving half of the maximal effect. As to `CCOc1ccc(N(CC(=O)Nc2ccccc2Br)S(C)(=O)=O)cc1`, the EC50 was 2.78 µM (active) in [1]; 15.5 µM (inactive) in test [2]; > 8 µM (not active) in test [3]; 8.11 µM (not active) in test [4]; > 8 µM (not active) in [5].
For orientation: AC50 means the concentration at which the activity in the assay is half-maximal. In general, IC50 refers to the concentration that inhibits the measured activity by half. On to `CCC(C)(C(=O)NC1CCCC1)N(Cc1ccco1)C(=O)c1ccccn1` (centres undefined), for which the EC50 was 9.05 µM in test [6], 11.4 µM in [9], > 32 µM (inactive) in [11] and > 32 µM (inactive) in test [12]. In addition, the half-maximal activity concentration (AC50) in [7] was 12.6 µM (inconclusive); in test [10], 7.94 µM (inconclusive). Also, the IC50 in [8] is > 32 µM (inactive).
With `COc1ccc(N2CCN(CCCNC(=O)Cn3c(=O)c4cccn4c4cccnc43)CC2)cc1`, the IC50 was > 32 µM (inactive) in [13]; 1.32 µM in [15]; 1.07 µM (active) and 3.05 µM (active) in test [16]; > 32 µM (inactive) in test [8]; > 32 µM (inactive) in [19]; > 32 µM (inactive) in test [20]. The concentration for half-maximal inhibition (IC50) in test [22] was 243 nM (active) and 670 nM (active); in test [23] it was 0.205 µM (active); in [24], > 32 µM (inactive); in test [25] it was 4.14 µM (active); in [26], 2.17 µM (active); in [27] it was 1.67 µM (active). In addition, the EC50 is > 31.5 µM (inactive) in test [14]; > 32 µM (inactive) in [17]; > 32 µM (inactive) in [18]; > 32 µM (inactive) in [21]; > 32 µM (inactive) in [11]; > 32 µM (inactive) in [12].
Regarding `CN1CCN(c2nc(Nc3ccccc3)nc(N)c2[N+](=O)[O-])CC1`, the EC50 in test [28] was 10.7 µM (inactive).
`CC(=O)c1cccc(NC(=O)CCc2nnc3ccc(NCc4ccco4)nn23)c1`: the EC50 in [29] and in test [32] was > 112 µM (not active) throughout. Also, the IC50 is 12 µM (active) in [30] and 77 µM (active) in [31].
Take `COc1cc(NC(=O)c2ccccn2)ccc1NC(=O)c1ccccc1Cl`: the concentration for a half-maximal effect (EC50) in [33] was 0.11 µM (active).
On to `CCOc1ccc(CCNC(=O)C2CC(=O)N(c3ccccc3OCC)C2)cc1OCC` (centres undefined), for which, in test [34], the AC50 is 17.3 µM (active).
On to `CCCOc1ccc(N2C(=O)C3C(C2=O)C2(C)C=CC3(C)O2)cc1` (centres undefined), for which the IC50 in [35] was 9.66 µM (active); in test [36] it was > 56.8 µM (inactive).
